# In patent publication US20230122249A1, “1H-PYRAZOLO[4,3-d]PYRIMIDINE COMPOUNDS AS TOLL-LIKE RECEPTOR 7 (TLR7) AGONISTS” (BRISTOL-MYERS SQUIBB COMPANY, priority 2020, published 2023):
# Target: T1, human TLR7 (Homo sapiens, UniProt Q9NYK1)
# T1 construct: host or cells: HEK-Blue TLR7 cells (engineered human embryonic kidney cells)
# T1 sequence (Q9NYK1 27-1049): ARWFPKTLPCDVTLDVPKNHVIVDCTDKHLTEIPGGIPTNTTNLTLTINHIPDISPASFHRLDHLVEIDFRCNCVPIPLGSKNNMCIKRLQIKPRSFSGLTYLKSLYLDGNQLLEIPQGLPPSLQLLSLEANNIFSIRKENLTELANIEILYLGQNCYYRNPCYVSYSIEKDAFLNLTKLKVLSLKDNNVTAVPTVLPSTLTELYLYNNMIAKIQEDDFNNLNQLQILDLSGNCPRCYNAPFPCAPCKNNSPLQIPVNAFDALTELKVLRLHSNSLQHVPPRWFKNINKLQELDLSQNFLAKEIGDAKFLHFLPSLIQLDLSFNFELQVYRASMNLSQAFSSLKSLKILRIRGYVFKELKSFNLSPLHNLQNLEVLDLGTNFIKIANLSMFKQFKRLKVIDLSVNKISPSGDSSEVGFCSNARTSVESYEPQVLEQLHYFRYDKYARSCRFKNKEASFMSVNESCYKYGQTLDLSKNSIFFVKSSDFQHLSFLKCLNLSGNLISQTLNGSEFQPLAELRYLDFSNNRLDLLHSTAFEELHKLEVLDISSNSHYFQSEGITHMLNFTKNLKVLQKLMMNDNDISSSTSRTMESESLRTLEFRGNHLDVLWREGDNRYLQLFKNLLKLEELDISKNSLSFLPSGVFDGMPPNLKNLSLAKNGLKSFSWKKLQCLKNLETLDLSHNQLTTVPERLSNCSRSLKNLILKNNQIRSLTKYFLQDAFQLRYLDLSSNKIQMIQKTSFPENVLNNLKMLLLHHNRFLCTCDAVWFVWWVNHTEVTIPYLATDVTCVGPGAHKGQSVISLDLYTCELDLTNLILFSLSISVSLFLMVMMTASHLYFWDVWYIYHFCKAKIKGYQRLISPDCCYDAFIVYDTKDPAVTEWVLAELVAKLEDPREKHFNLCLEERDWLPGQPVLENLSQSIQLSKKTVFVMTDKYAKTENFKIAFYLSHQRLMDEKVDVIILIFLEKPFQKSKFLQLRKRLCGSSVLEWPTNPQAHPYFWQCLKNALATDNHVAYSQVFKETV
# Test: Human TLR7 agonist activity (hTLR7 reporter) assay in HEK-Blue TLR7 cells, SEAP readout
# Format: cell-based
# Conditions: 18 h treatment, average where assay repeated
# Method: This procedure describes a method for assaying human TLR7 (hTLR7) agonist activity of the compounds disclosed in this specification.
# HEK-Blue™ TLR7 cells were added to each well of a 384-well tissue-culture plate (15,000 cells per well) and incubated 16-18 h at 37° C., 5% CO2. Compounds (100 nl) were dispensed into wells containing the HEK-Blue™ TLR cells and the treated cells were incubated at 37° C., 5% CO2. After 18 h treatment ten microliters of freshly-prepared Quanti-Blue™ reagent (Invivogen) was added to each well, incubated for 30 min (37° C., 5% CO2) and SEAP levels measured using an Envision plate reader (OD=620 nm). The half maximal effective concentration values (EC50; compound concentration which induced a response halfway between the assay baseline and maximum) were calculated.
row,Compound,EC50 [nM]
1,COc1cc(CNC2CCC2)ccc1Cn1ncc2nc(N)nc(NCC3CC4(C3)CC4F)c21 (mixture of isomers) [Compound 115],84.1
2,COc1cc(CNC2CCC2)ccc1Cn1ncc2nc(N)nc(NCC3CC4(C3)CC4(F)F)c21 (mixture of isomers) [Compound 136],68.1
3,CCC[C@@H](CCO)Nc1nc(N)nc2cnn(Cc3ccc(CN4CC5(C4)CN(C(C)=O)C5)cc3OC)c12 [Compound 101],32.4
4,CCCCNc1nc(N)nc2cnn(Cc3ccc(CN4CC5(C4)CC(F)(F)C5)cc3OC)c12 [Compound 102],95.4
5,CCCCNc1nc(N)nc2cnn(Cc3ccc(CN4CC5(COC5)C4)cc3OC)c12 [Compound 103],62.9
6,CCCCNc1nc(N)nc2cnn(Cc3ccc(CN4CC5(C4)CN(C(=O)CC(C)C)C5)cc3OC)c12 [Compound 104],138
7,CCCCNc1nc(N)nc2cnn(Cc3ccc(CN4CC5(C4)CN(C(=O)C(C)(C)C)C5)cc3OC)c12 [Compound 105],60
8,CCC[C@@H](CCO)Nc1nc(N)nc2cnn(Cc3ccc(CN4CC5(C4)CN(C(=O)C4CCC4)C5)cc3OC)c12 [Compound 106],11.6
9,CCC[C@@H](CCO)Nc1nc(N)nc2cnn(Cc3ccc(CN4CC5(C4)CN(C(=O)C4(C)CC4)C5)cc3OC)c12 [Compound 107],6.6
10,COc1cc(CN2CC3(C2)CN(C(C)=O)C3)ccc1Cn1ncc2nc(N)nc(NCC3CC4(CC4)C3)c21 [Compound 108],50.1
11,COc1cc(CN2CC3(C2)CN(C(C)=O)C3)ccc1Cn1ncc2nc(N)nc(NCC3CC34CC4)c21 (stereo not shown) [Compound 109],1230
12,CCCCNc1nc(N)nc2cnn(Cc3ccc(CN4CC5(C4)CN(C(=O)C4CCC4)C5)cc3OC)c12 [Compound 110],31.9
13,CCCCNc1nc(N)nc2cnn(Cc3ccc(CN4CC5(C4)CN(C(=O)C4(C)CC4)C5)cc3OC)c12 [Compound 111],52.5
14,CCC[C@@H](CCO)Nc1nc(N)nc2cnn(Cc3ccc(CN4CC5(CCO5)C4)cc3OC)c12 [Compound 112],1.5
15,CCC[C@@H](CCO)Nc1nc(N)nc2cnn(Cc3ccc(CN4CC5(CCOCC5)C4)cc3OC)c12 [Compound 113],4.6
16,CCC[C@@H](CCO)Nc1nc(N)nc2cnn(Cc3ccc(CNC4CCOCC45CCC5)cc3OC)c12 (stereo partly shown) [Compound 114],3.4
17,COc1cc(CNC2CCOCC2)ccc1Cn1ncc2nc(N)nc(NCC3CC4(C3)CC4F)c21 (stereo not shown) [Compound 116],163
18,COc1cc(CN2C[C@H]3CN(C)C[C@H]3C2)ccc1Cn1ncc2nc(N)nc(NCC3CC4(C3)CC4F)c21 (stereo partly shown) [Compound 118],137
19,COc1cc(CN2CC3(CN(C)C3)C2)ccc1Cn1ncc2nc(N)nc(NCC3CC4(C3)CC4F)c21 (stereo not shown) [Compound 120],262
20,COc1cc(CN2CC3(C2)CN(C(C)=O)C3)ccc1Cn1ncc2nc(N)nc(NCC3CC4(C3)CC4(F)F)c21 (stereo not shown) [Compound 122],241

row,Compound,EC50 [nM]
1,COc1cc(CN2CC3(C2)CN(C(C)C2(C)CC2)C3)ccc1Cn1ncc2nc(N)nc(NCC3CC4(C3)CC4(F)F)c21 (stereo not shown) [Compound 123],320
2,COc1cc(CN2C[C@@H]3C[C@H]2CN3)ccc1Cn1ncc2nc(N)nc(NCC3CC4(C3)CC4F)c21 (stereo partly shown) [Compound 124],193
3,COc1cc(CN2C[C@H]3C[C@@H]2CN3C)ccc1Cn1ncc2nc(N)nc(NCC3CC4(C3)CC4F)c21 (stereo partly shown) [Compound 125],59.2
4,COc1cc(CN2C[C@H]3CNC[C@H]3C2)ccc1Cn1ncc2nc(N)nc(NCC3CC4(C3)CC4F)c21 (stereo partly shown) [Compound 126],244
5,COc1cc(CN2CC3(C2)CN(C(=O)C2(C)CC2)C3)ccc1Cn1ncc2nc(N)nc(NCC3CC4(C3)CC4F)c21 (stereo not shown) [Compound 128],349
6,COc1cc(CNC2CCC2)ccc1Cn1ncc2nc(N)nc(NCC3CC4(CC4)C3)c21 [Compound 129],24.4
7,COc1cc(CNC2CCOCC2)ccc1Cn1ncc2nc(N)nc(NCC3CC4(CC4)C3)c21 [Compound 130],39.7
8,COc1cc(CN2C[C@H]3C[C@@H]2CN3C)ccc1Cn1ncc2nc(N)nc(NCC3CC4(CC4)C3)c21 [Compound 134],16.6
9,COc1cc(CN2CC3(CCOCC3)C2)ccc1Cn1ncc2nc(N)nc(NCC3CC4(CC4)C3)c21 [Compound 135],69.8
10,COc1cc(CNC2CCOCC2)ccc1Cn1ncc2nc(N)nc(NCC3CC4(C3)CC4(F)F)c21 (stereo not shown) [Compound 137],88.1
11,COc1cc(CN2CC3(CN(C)C3)C2)ccc1Cn1ncc2nc(N)nc(NCC3CC4(C3)CC4(F)F)c21 (stereo not shown) [Compound 138],244
12,COc1cc(CN2C[C@H]3CNC[C@H]3C2)ccc1Cn1ncc2nc(N)nc(NCC3CC4(C3)CC4(F)F)c21 (stereo partly shown) [Compound 140],435
13,COc1cc(CN2C[C@H]3C[C@@H]2CN3C)ccc1Cn1ncc2nc(N)nc(NCC3CC4(C3)CC4(F)F)c21 (stereo partly shown) [Compound 142],49.7
14,COc1cc(CN2CC3(CC(O)C3)C2)ccc1Cn1ncc2nc(N)nc(NCC3CC4(C3)CC4(F)F)c21 (stereo not shown) [Compound 143],103
15,COc1cc(CN2CC3(CC(OC)C3)C2)ccc1Cn1ncc2nc(N)nc(NCC3CC4(C3)CC4(F)F)c21 (stereo not shown) [Compound 144],69.5
16,COc1cc(C(=O)N2CC3(CC(O)C3)C2)ccc1Cn1ncc2nc(N)nc(NCC3CC4(C3)CC4(F)F)c21 (stereo not shown) [Compound 160],2580
17,COc1cc(C(=O)N2CCOCC2)ccc1Cn1ncc2nc(N)nc(NCC3CC4(C3)CC4(F)F)c21 (stereo not shown) [Compound 161],354
18,COc1cc(C(=O)N(C)C)ccc1Cn1ncc2nc(N)nc(NCC3CC4(C3)CC4(F)F)c21 (stereo not shown) [Compound 162],497
19,COc1cc(C(=O)NC2CCN(C)CC2)ccc1Cn1ncc2nc(N)nc(NCC3CC4(C3)CC4(F)F)c21 (stereo not shown) [Compound 164],638
20,COc1cc(C(=O)N2CCN(C)CC2)ccc1Cn1ncc2nc(N)nc(NCC3CC4(C3)CC4(F)F)c21 (stereo not shown) [Compound 165],147

# Test system: CD69 in human whole blood
# Test: Induction of CD69 in human whole blood (hWB)
# Format: cell-based
# Conditions: heparinized human whole blood, 17 h, CD69 surface staining; 100% set to 1 uM resiquimod; average where assay repeated
# Method: The induction of Type I interferon (IFN) MX-1 genes and the B-cell activation marker CD69 are downstream events that occur upon activation of the TLR7 pathway. The following is a human whole blood assay that measures their induction in response to a TLR7 agonist.
# Heparinized human whole blood was harvested from human subjects and treated with test TLR7 agonist compounds at 1 mM. The blood was diluted with RPMI 1640 media and Echo was used to predot 10 nL per well giving a final concentration of 1 uM (10 nL in 10 uL of blood). After mixing on a shaker for 30 sec, the plates were covered and placed in a 37° C. chamber for o/n=17 hrs. Fixing/lysis buffer was prepared (5×->1×in H2O, warm at 37° C.; Cat# BD 558049) and kept the perm buffer (on ice) for later use.
# For surface markers staining (CD69): prepared surface Abs: 0.045 ul hCD14-FITC (ThermoFisher Cat # MHCD1401)+0.6 ul hCD19-ef450 (ThermoFisher Cat #48-0198-42)+1.5 ul hCD69-PE (cat# BD555531)+0.855 ul FACS buffer. Added 3 ul/well, spin1000 rpm for 1 min and mixed on shaker for 30 sec, put on ice for 30 mins. Stop stimulation after 30 minutes with 70 uL of prewarmed 1×fix/lysis buffer and use Feliex mate to resuspend (15 times, change tips for each plate) and incubate at 37° C. for 10 minutes.
# Centrifuge at 2000 rpm for 5 minutes aspirate with HCS plate washer, mix on shaker for 30 sec and then wash with 70 uL in dPBS and pelleted 2 xs (2000 rpm for 5 min) and 50 ul wash in FACS buffer pelleted 1 xs(2000 rpm for 5 min). Mix on shaker for 30 sec. For Intracellular markers staining (MX-1): Add 50 ul of BD Perm buffer III and mix on shaker for 30 sec. Incubate on ice for 30 minutes (in the dark). Wash with 50 uL of FACS buffer 2×(spin @2300 rpm×5 min after perm) followed by mixing on shaker for 30 sec. Resuspended in 20 ul of FACS buffer containing MX1 antibody ( )(4812)-Alexa 647: Novus Biologicals #NBP2-43704AF647) 20 ul FACS bf+0.8 ul hlgG+0.04 ul MX-1. Spin 1000 rpm for 1 min, mix on shaker for 30 se and the samples were incubated at RT in the dark for 45 minutes followed by washing 2×FACS buffer (spin @2300 rpm×5 min after perm). Resuspend 20 ul (35 uL total per well) of FACS buffer and cover with foil and place in 4° C. to read the following day. Plates were read on iQuePlus. The results were loaded into toolset and […] curves are generated in curve master. The y-axis 100% is set to 1 uM of resiquimod.
row,Compound,EC50 [nM]
1,CCC[C@@H](CCO)Nc1nc(N)nc2cnn(Cc3ccc(CN4CC5(C4)CN(C(C)=O)C5)cc3OC)c12 [Compound 101],4.5
2,CCCCNc1nc(N)nc2cnn(Cc3ccc(CN4CC5(COC5)C4)cc3OC)c12 [Compound 103],13.5
3,CCC[C@@H](CCO)Nc1nc(N)nc2cnn(Cc3ccc(CN4CC5(C4)CN(C(=O)C4CCC4)C5)cc3OC)c12 [Compound 106],24.9
4,CCC[C@@H](CCO)Nc1nc(N)nc2cnn(Cc3ccc(CN4CC5(C4)CN(C(=O)C4(C)CC4)C5)cc3OC)c12 [Compound 107],9.9
5,COc1cc(CN2CC3(C2)CN(C(C)=O)C3)ccc1Cn1ncc2nc(N)nc(NCC3CC4(CC4)C3)c21 [Compound 108],52.9
6,CCCCNc1nc(N)nc2cnn(Cc3ccc(CN4CC5(C4)CN(C(=O)C4(C)CC4)C5)cc3OC)c12 [Compound 111],24.9
7,CCC[C@@H](CCO)Nc1nc(N)nc2cnn(Cc3ccc(CN4CC5(CCO5)C4)cc3OC)c12 [Compound 112],333
8,CCC[C@@H](CCO)Nc1nc(N)nc2cnn(Cc3ccc(CN4CC5(CCOCC5)C4)cc3OC)c12 [Compound 113],0.5
9,COc1cc(CN2CC3(C2)CN(C(C)=O)C3)ccc1Cn1ncc2nc(N)nc(NCc3cc(C)on3)c21 [Compound 212],61.9
